Our source for the DC50 and IC50 values is patent US8003649B2 (AstraZeneca AB, priority 2007, dated 2011).

One experiment addresses T1, Androgen Receptor (AR) (Homo sapiens, UniProt P10275, T878A).
T1 construct: cell based immuno-fluorescence assay using the LNCaP prostate epithelial cell line; endogenous in cells; host or cells: LNCaP clone FGC (ATCC CRL-1740)
T1 sequence (P10275 1-920 T878A): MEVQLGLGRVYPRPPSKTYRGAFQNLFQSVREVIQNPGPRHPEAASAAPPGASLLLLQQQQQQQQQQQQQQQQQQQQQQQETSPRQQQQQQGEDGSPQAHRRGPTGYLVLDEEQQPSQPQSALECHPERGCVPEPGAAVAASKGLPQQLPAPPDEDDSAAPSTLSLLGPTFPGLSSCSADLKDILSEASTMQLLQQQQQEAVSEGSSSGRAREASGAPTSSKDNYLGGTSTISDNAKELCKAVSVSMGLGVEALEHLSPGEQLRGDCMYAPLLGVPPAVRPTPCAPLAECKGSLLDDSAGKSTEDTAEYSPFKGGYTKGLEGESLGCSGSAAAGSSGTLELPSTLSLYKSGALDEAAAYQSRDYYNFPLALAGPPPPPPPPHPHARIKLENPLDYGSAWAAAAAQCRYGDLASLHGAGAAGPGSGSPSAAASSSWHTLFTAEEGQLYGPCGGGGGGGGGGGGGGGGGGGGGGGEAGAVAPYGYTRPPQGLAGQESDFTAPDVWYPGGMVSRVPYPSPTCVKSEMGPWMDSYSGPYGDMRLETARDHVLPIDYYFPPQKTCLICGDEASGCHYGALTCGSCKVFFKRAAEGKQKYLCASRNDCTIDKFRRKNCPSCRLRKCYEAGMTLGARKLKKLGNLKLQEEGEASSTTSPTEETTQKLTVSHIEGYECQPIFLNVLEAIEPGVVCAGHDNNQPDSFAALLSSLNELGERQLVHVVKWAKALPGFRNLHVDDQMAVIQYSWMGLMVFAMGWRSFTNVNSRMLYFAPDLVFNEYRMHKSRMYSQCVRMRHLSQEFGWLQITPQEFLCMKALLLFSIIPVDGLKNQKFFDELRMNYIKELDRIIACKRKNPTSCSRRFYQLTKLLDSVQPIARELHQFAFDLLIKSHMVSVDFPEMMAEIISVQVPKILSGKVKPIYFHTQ
The experiment can be described thus: LNCaP Androgen Receptor Down-regulation Cell Assay (immunofluorescence end point). In kind it is cell-based. Particulars: LNCaP prostate carcinoma cells, compound incubation 20-22 hours, 50% reduction of the AR signal; read-out: Androgen Receptor Down-regulation Assay (a) IC50/μM. The procedure, abridged: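 AR loss reported as IC50 from curve fits of fluorescence dose-response data, with AR immunostained and read by laser-scanning cytometry. Compound exposure was 20-22 h at 37° C in LNCaP cells grown in 5% charcoal-stripped FBS and plated overnight beforehand.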

The target in a further experiment is T2, isolated rat AR-LBD (Rattus norvegicus, UniProt P15207).
T2 construct: purchased Invitrogen PV4293
T2 sequence (P15207 651-882 limits assumed): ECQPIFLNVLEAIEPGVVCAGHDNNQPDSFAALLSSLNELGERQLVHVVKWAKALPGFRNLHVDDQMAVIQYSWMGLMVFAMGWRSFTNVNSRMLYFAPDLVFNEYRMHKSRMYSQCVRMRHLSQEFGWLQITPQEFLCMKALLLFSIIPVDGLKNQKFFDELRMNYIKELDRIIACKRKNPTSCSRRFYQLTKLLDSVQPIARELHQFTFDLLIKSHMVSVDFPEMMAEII
The experiment is described as follows: Androgen Receptor Ligand Binding Domain competitive binding assay, Fluorescence Polarisation (PolarScreen). The settings on record: 50% reduction in tracer compound binding to AR-LBD; read-out: Androgen Receptor FP Ligand-Binding Assay IC50/μM. The method, then: b) Androgen Receptor—Ligand Binding Domain Competitive Binding Assay
(§1) The ability of compounds to bind to isolated Androgen Receptor Ligand binding domain (AR-LBD) was assessed in competition assays using either a Fluorescence Polarisation (FP) or a LanthaScreen™ Time-Resolved Fluorescence Resonance Energy Transfer (TR-FRET) detection end-point.
For the FP test, an assay test kit was purchased from Invitrogen and used to measure compound binding to the isolated rat AR-LBD which shares 100% sequence identity to the human AR-LBD. The Invitrogen PolarScreen™ Androgen Receptor Competitor Assay Red (Product Code No. PV4293), is a fluorescence polarisation (FP)-based competition assay which measures if test compound can displace a fluorescently-labelled tracer compound. If the test compound binds to the AR-LBD it will prevent the formation of the receptor/tracer complex, which will result in a low polarisation value. […] The assay was performed as essentially described in the Invitrogen method with the exception that the final assay volume was 12 μl and this required an appropriate low volume black 384 well microtitre plate. Compounds were dosed directly from a compound source microplate containing serially diluted compound (4 wells containing 10 mM, […], 1 μM and 10 nM final compound respectively) to an assay microplate using the Labcyte Echo 550. The Echo 550 is a liquid handler that uses acoustic technology to perform direct microplate-to-microplate transfers of DMSO compound solutions and the system can be programmed to transfer multiple small nL volumes of compound from the different source plate wells to give the desired serial dilution of compound in the assay which is then back-filled to normalise the DMSO concentration across the dilution range. FP dose response data obtained with each compound was exported into a suitable software package (such as Origin) to perform curve fitting analysis. Competitive AR binding was expressed as an IC50 value. This was determined by calculation of the concentration of compound that was required to give a 50% reduction in tracer compound binding to AR-LBD.
For orientation: Polarisation of emitted light reports the rotation of a fluorescent probe.

The target in the next experiment is T3, rat GST-tagged AR-LBD (Rattus norvegicus, UniProt P15207).
T3 construct: purchased Invitrogen
T3 sequence (P15207 651-882 limits assumed): T2 sequence (P15207 651-882 limits assumed)
The experiment is described as follows: LanthaScreen TR-FRET AR Binding Assay. The settings on record: n = 2; 12-point concentration response up to 100 μM. The protocol: as §1
For LanthaScreen™ TR-FRET, a suitable fluorophore (Product code PV4294) and rat GST-tagged AR-LBD were purchased from Invitrogen and used to measure compound binding. The assay principle is that AR-LBD is added to a fluorescent ligand to form a receptor/fluorophore complex. A terbium-labelled anti-GST antibody is used to indirectly label the receptor by binding to a GST tag, and competitive binding is detected by a test compounds' ability to displace the fluorescent ligand resulting in a loss of TR-FRET signal between the Tb-anti-GST antibody and the tracer. The assay was performed as follows with all reagent additions carried out using the Thermo Scientific Matrix PlateMate:— • 1. […]
Compounds were dosed directly from a compound source microplate containing serially diluted compound (4 wells containing 10 mM, 0.1 mM, 1 μM and 10 nM final compound respectively) to an assay microplate using the Labcyte Echo 550. […] Competitive AR binding was expressed as an IC50 value. This was determined by calculation of the concentration of compound that was required to give a 50% reduction in tracer compound binding to AR-LBD.
A general note: TR-FRET usually uses a lanthanide donor and a delayed reading to cut background.

Bounds are passed on as bounds.

As to `FC(F)(F)Cc1nnc2ccc(N3CCN(C(c4ccccc4)c4ccccc4)CC3)nn12` [Example 4, 6-(4-benzhydrylpiperazin-1-yl)-3-(2,2,2-trifluoroethyl)-[1,2,4]triazolo[4,3-b]pyridazine], at Androgen Receptor (AR), the DC50 worked out at 2.5 µM. In addition, the IC50 at isolated rat AR-LBD worked out at 20.2 µM. Regarding `FC(F)(F)c1nnc2ccc(N3CC4CC3CN4Cc3ccccc3)nn12` (stereo not drawn) [Example 41, 6-(5-benzyl-2,5-diazabicyclo[2.2.1]heptan-2-yl)-3-(trifluoromethyl)-[1,2,4]triazolo[4,3-b]pyridazine], on isolated rat AR-LBD, the IC50 turned out to be 19.6 µM. For the molecule `CS(=O)(=O)c1ccc(CN2CCCN(c3ccc4nnc(C(F)(F)F)n4n3)CC2)cc1` [Example 166, 6-[4-[(4-methylsulfonylphenyl)methyl]-1,4-diazepan-1-yl]-3-(trifluoromethyl)-[1,2,4]triazolo[4,3-b]pyridazine], the DC50 at Androgen Receptor (AR) was determined as 0.93 µM. For the same molecule, the IC50 at isolated rat AR-LBD came out at 6.09 µM. In the same order, the values of `FC(F)(F)c1ccccc1CN1CCCN(c2ccc3nnc(C(F)(F)F)n3n2)CC1` [Example 174, 3-(trifluoromethyl)-6-[4-[[2-(trifluoromethyl)phenyl]methyl]-1,4-diazepan-1-yl]-[1,2,4]triazolo[4,3-b]pyridazine] are 0.94 µM and 16.3 µM. For `Cc1ccccc1CN1CCCN(c2ccc3nnc(C(F)(F)F)n3n2)CC1` [Example 183, 6-[4-[(2-methylphenyl)methyl]-1,4-diazepan-1-yl]-3-(trifluoromethyl)-[1,2,4]triazolo[4,3-b]pyridazine], the IC50 on isolated rat AR-LBD was found to be 14.4 µM. Regarding `OC1(c2cccnc2)CCN(c2ccc3nnc(C(F)(F)F)n3n2)CC1` [Example 511, 4-pyridin-3-yl-1-[3-(trifluoromethyl)[1,2,4]triazolo[4,3-b]pyridazin-6-yl]piperidin-4-ol], the IC50 at rat GST-tagged AR-LBD was over 100 µM. As for `Cn1nccc1CCOc1ccc(C2CCN(c3ccc4nnc(C(F)(F)F)n4n3)CC2)cc1` [Example 513, 6-[4-[4-[2-(1-methyl-1H-pyrazol-5-yl)ethoxy]phenyl]piperidin-1-yl]-3-(trifluoromethyl)[1,2,4]triazolo[4,3-b]pyridazine], the DC50 on Androgen Receptor (AR) came out at 0.24 µM. The same molecule had an IC50 on rat GST-tagged AR-LBD of 1.3 µM.

Regarding `CC(=O)N1CCN(CCOc2ccc(C3CCN(c4ccc5nnc(C(F)(F)F)n5n4)CC3)cc2)CC1` [Example 852, 6-[4-[4-[2-(4-acetylpiperazin-1-yl)ethoxy]phenyl]piperidin-1-yl]-3-(trifluoromethyl)[1,2,4]triazolo[4,3-b]pyridazine], the DC50 at Androgen Receptor (AR) stood at 0.29 µM. Take `CS(=O)(=O)N1CCN(CCCOc2ccc(C3CCN(c4ccc5nnc(C(F)(F)F)n5n4)CC3)cc2)CC1` [Example 855, 6-[4-[4-[3-[4-(methylsulfonyl)piperazin-1-yl]propoxy]phenyl]piperidin-1-yl]-3-(trifluoromethyl)[1,2,4]triazolo[4,3-b]pyridazine]: the DC50 on Androgen Receptor (AR) stood at 0.44 µM.

Turning to `Cn1nccc1CCOc1ccc(N2CCN(c3ccc4nnc(C(F)F)n4n3)CC2)cc1` [Example 856, 3-(difluoromethyl)-6-[4-[4-[2-(1-methyl-1H-pyrazol-5-yl]ethoxy]phenyl]piperazin-1-yl)[1,2,4]triazolo[4,3-b]pyridazine], the DC50 at Androgen Receptor (AR) stood at 2.2 µM. Same read-out and setting: with `N#Cc1ccc(S(=O)(=O)N2CCN(c3ccc4nnc(C(F)(F)F)n4n3)CC2)cc1` [Example 857, 4-[4-[3-(trifluoromethyl)-[1,2,4]triazolo[3,4-f]pyridazin-6-yl]piperazin-1-yl]sulfonylbenzonitrile] the figure was over 33 µM; with `C[C@H](c1ccc(C#N)cc1)N1CCN(c2ccc3nnc(C(F)F)n3n2)CC1` [Example 858, 4-[(1R)-1-[4-[3-(difluoromethyl)-[1,2,4]triazolo[3,4-f]pyridazin-6-yl]piperazin-1-yl]ethyl]benzonitrile], over 33 µM. Still for that read-out and setting: with `CS(=O)(=O)c1cc(F)cc(CN2CCN(c3ccc4nnc(C(F)F)n4n3)CC2)c1` [Example 859, 3-(difluoromethyl)-6-[4-[3-fluoro-5-(methylsulfonyl)benzyl]piperazin-1-yl][1,2,4]triazolo[4,3-b]pyridazine] the figure was over 33 µM; with `Cn1nccc1CCOc1ccc(C2(O)CCN(c3ccc4nnc(C(F)(F)F)n4n3)CC2)cc1` [Example 860, 4-[4-[2-(1-methyl-1H-pyrazol-5-yl)ethoxy]phenyl]-1-[3-(trifluoromethyl)[1,2,4]triazolo[4,3-b]pyridazin-6-yl]piperidin-4-ol], 0.8 µM.
